Measurements taken from patent publication US11084822B2, “Salts and processes of preparing a PI3K inhibitor” (Incyte Corporation, priority 2015, dated 2021).

System: PI3K
Assay: PI3K inhibition according to at least one assay described herein
Format: biochemical
Details: not given

| SMILES | PI3K inhibition |
| --- | --- |
| CCOc1c([C@H](C)n2nc(C)c3c(N)ncnc32)cc(Cl)c(F)c1[C@@H]1CNC(=O)C1 [compound of Formula I, (R)-4-(3-((S)-1-(4-amino-3-methyl-1H-pyrazolo[3,4-d]pyrimidin-1-yl)ethyl)-5-chloro-2-ethoxy-6-fluorophenyl)pyrrolidin-2-one] | found to be PI3K inhibitors |

Molecular target: JAK2 (Homo sapiens (Human), UniProt O60674)
Sequence (O60674 whole entry, species assumed): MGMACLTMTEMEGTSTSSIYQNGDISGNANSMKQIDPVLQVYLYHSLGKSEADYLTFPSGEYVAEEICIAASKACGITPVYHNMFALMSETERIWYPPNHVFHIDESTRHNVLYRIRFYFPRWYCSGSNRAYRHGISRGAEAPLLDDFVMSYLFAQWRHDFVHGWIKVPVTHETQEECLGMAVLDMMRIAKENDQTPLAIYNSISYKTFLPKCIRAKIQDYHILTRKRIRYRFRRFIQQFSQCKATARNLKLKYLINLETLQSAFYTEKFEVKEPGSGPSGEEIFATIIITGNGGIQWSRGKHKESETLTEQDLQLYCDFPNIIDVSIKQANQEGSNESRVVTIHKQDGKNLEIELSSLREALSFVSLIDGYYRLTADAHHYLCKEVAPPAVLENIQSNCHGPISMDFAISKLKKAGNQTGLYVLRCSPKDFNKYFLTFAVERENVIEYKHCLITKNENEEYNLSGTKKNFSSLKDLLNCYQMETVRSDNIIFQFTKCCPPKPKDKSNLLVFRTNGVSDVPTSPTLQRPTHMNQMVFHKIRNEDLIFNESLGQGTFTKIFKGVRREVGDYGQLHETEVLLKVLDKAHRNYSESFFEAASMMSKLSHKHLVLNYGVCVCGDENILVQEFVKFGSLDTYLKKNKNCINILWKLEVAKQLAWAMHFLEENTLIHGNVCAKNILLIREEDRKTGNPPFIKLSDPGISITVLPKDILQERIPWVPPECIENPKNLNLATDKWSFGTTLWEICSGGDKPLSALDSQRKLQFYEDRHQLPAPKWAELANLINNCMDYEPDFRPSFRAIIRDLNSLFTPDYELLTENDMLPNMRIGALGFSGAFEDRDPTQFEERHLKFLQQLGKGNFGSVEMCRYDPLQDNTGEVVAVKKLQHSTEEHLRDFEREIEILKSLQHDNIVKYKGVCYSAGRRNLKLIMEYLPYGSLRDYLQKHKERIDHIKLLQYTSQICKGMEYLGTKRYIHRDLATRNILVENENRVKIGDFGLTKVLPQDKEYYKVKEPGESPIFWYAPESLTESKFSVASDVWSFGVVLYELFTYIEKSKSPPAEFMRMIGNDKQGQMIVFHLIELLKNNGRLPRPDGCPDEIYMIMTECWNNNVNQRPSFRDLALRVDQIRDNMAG
Assay: JAK2 versus JAK1 (Assay A at 1 mM ATP)
Format: biochemical
Details: ratio JAK2/JAK1, Assay A at 1 mM ATP

| SMILES | JAK2/JAK1 |
| --- | --- |
| N#CCC(C1CCN(c2cccc(Cl)n2)C1)n1cc(-c2ncnc3[nH]ccc23)cn1 (single isomer, unassigned) [Compound 3, 3-[1-(6-chloropyridin-2-yl)pyrrolidin-3-yl]-3-[4-(7H-pyrrolo[2,3-d]pyrimidin-4-yl)-1H-pyrazol-1-yl]propanenitrile] | >10 |
| N#CCC(C1CCN(c2nc3cccnc3o2)C1)n1cc(-c2ncnc3[nH]ccc23)cn1 (stereo not shown) [Compound 4, 3-(1-[1,3]oxazolo[5,4-b]pyridin-2-ylpyrrolidin-3-yl)-3-[4-(7H-pyrrolo[2,3-d]pyrimidin-4-yl)-1H-pyrazol-1-yl]propanenitrile] | >10 |
| N#CCC(CN1CCN(C(=O)c2ccc(C#N)cc2F)CC1)n1cc(-c2ncnc3[nH]ccc23)cn1 (stereo not shown) [Compound 5, 4-[(4-{3-cyano-2-[4-(7H-pyrrolo[2,3-d]pyrimidin-4-yl)-1H-pyrazol-1-yl]propyl}piperazin-1-yl)carbonyl]-3-fluorobenzonitrile] | >10 |
| N#CCC(CN1CCN(C(=O)c2ccc(C#N)cc2F)CC1)n1ccc(-c2ncnc3[nH]ccc23)c1 (stereo not shown) [Compound 6, 4-[(4-{3-cyano-2-[3-(7H-pyrrolo[2,3-d]pyrimidin-4-yl)-1H-pyrrol-1-yl]propyl}piperazin-1-yl)carbonyl]-3-fluorobenzonitrile] | >10 |
| N#CCC1(n2cc(-c3ncnc4[nH]ccc34)cn2)CN(C2CCN(C(=O)c3ccnc(C(F)(F)F)c3F)CC2)C1 [Compound 7, {1-{1-[3-Fluoro-2-(trifluoromethyl)isonicotinoyl]piperidin-4-yl}-3-[4-(7H-pyrrolo[2,3-d]pyrimidin-4-yl)-1H-pyrazol-1-yl]azetidin-3-yl}acetonitrile] | >10 |
| N#CCC1(n2cc(-c3ncnc4[nH]ccc34)cn2)CN(C2CCN(C(=O)Nc3ccc(F)cc3C(F)(F)F)CC2)C1 [Compound 8] | >10 |
| N#CCC1(n2cc(-c3ncnc4[nH]ccc34)cn2)CN(C2CCN(C(=O)c3ccnc(C(F)(F)F)n3)CC2)C1 [Compound 9, [3-[4-(7H-pyrrolo[2,3-d]pyrimidin-4-yl)-1H-pyrazol-1-yl]-1-(1-{[2-(trifluoromethyl)pyrimidin-4-yl]carbonyl}piperidin-4-yl)azetidin-3-yl]acetonitrile] | >10 |
| N#CC[C@]1(n2cc(-c3ncnc4[nH]ccc34)cn2)C[C@H](N2CCN(C(=O)c3ccnc(C(F)(F)F)n3)CC2)C1 [Compound 10, [trans-1-[4-(7H-pyrrolo[2,3-d]pyrimidin-4-yl)-1H-pyrazol-1-yl]-3-(4-{[2-(trifluoromethyl)pyrimidin-4-yl]carbonyl}piperazin-1-yl)cyclobutyl]acetonitrile] | >10 |
| C[C@H](NC(=O)c1cc(F)c(N2CC(CC#N)(n3cc(-c4ncnc5[nH]ccc45)cn3)C2)cc1F)C(F)(F)F [Compound 16, 4-{3-(cyanomethyl)-3-[4-(7H-pyrrolo[2,3-d]pyrimidin-4-yl)-1H-pyrazol-1-yl]azetidin-1-yl}-2,5-difluoro-N-[(1S)-2,2,2-trifluoro-1-methylethyl]benzamide] | >10 |
| C[C@@H](CO)NCc1cc(OC2CCN([C@H]3C[C@](CC#N)(n4cc(-c5ncnc6[nH]ccc56)cn4)C3)CC2)nc(C(F)(F)F)c1 [Compound 23, {trans-3-(4-{[4-({[(1S)-2-hydroxy-1-methylethyl]amino}methyl)-6-(trifluoromethyl)pyridin-2-yl]oxy}piperidin-1-yl)-1-[4-(7H-pyrrolo[2,3-d]pyrimidin-4-yl)-1H-pyrazol-1-yl]cyclobutyl}acetonitrile] | >10 |

Continued, values first:

| JAK2/JAK1 | SMILES |
| --- | --- |
| >10 | N#CC[C@]1(n2cc(-c3ncnc4[nH]ccc34)cn2)C[C@H](N2CCC(Oc3cc(CN4CC(O)C4)cc(C(F)(F)F)n3)CC2)C1 [Compound 11, {trans-3-(4-{[4-[(3-hydroxyazetidin-1-yl)methyl]-6-(trifluoromethyl)pyridin-2-yl]oxy}piperidin-1-yl)-1-[4-(7H-pyrrolo[2,3-d]pyrimidin-4-yl)-1H-pyrazol-1-yl]cyclobutyl}acetonitrile] |
| >10 | N#CC[C@]1(n2cc(-c3ncnc4[nH]ccc34)cn2)C[C@H](N2CCC(Oc3cc(CN4CCC[C@H]4CO)cc(C(F)(F)F)n3)CC2)C1 [Compound 12, {trans-3-(4-{[4-{[(2S)-2-(hydroxymethyl)pyrrolidin-1-yl]methyl}-6-(trifluoromethyl)pyridin-2-yl]oxy}piperidin-1-yl)-1-[4-(7H-pyrrolo[2,3-d]pyrimidin-4-yl)-1H-pyrazol-1-yl]cyclobutyl}acetonitrile] |
| >10 | N#CC[C@]1(n2cc(-c3ncnc4[nH]ccc34)cn2)C[C@H](N2CCC(Oc3cc(CN4CCC[C@@H]4CO)cc(C(F)(F)F)n3)CC2)C1 [Compound 13, {trans-3-(4-{[4-{[(2R)-2-(hydroxymethyl)pyrrolidin-1-yl]methyl}-6-(trifluoromethyl)pyridin-2-yl]oxy}piperidin-1-yl)-1-[4-(7H-pyrrolo[2,3-d]pyrimidin-4-yl)-1H-pyrazol-1-yl]cyclobutyl}acetonitrile] |
| >10 | N#CCC1(n2cc(-c3ncnc4[nH]ccc34)cn2)CN([C@H]2CC[C@@H](Oc3cc(CCO)nc(C(F)(F)F)n3)CC2)C1 [Compound 18, {1-(cis-4-{[6-(2-hydroxyethyl)-2-(trifluoromethyl)pyrimidin-4-yl]oxy}cyclohexyl)-3-[4-(7H-pyrrolo[2,3-d]pyrimidin-4-yl)-1H-pyrazol-1-yl]azetidin-3-yl)acetonitrile] |
| >10 | CCNCc1cc(O[C@H]2CC[C@@H](N3CC(CC#N)(n4cc(-c5ncnc6[nH]ccc56)cn4)C3)CC2)nc(C(F)(F)F)c1 [Compound 19, {1-(cis-4-{[4-[(ethylamino)methyl]-6-(trifluoromethyl)pyridin-2-yl]oxy}cyclohexyl)-3-[4-(7H-pyrrolo[2,3-d]pyrimidin-4-yl)-1H-pyrazol-1-yl]azetidin-3-yl}acetonitrile] |
| >10 | CC(C)(O)c1cc(O[C@H]2CC[C@@H](N3CC(CC#N)(n4cc(-c5ncnc6[nH]ccc56)cn4)C3)CC2)nc(C(F)(F)F)c1 [Compound 20, {1-(cis-4-{[4-(1-hydroxy-1-methylethyl)-6-(trifluoromethyl)pyridin-2-yl]oxy}cyclohexyl)-3-[4-(7H-pyrrolo[2,3-d]pyrimidin-4-yl)-1H-pyrazol-1-yl]azetidin-3-yl}acetonitrile] |
| >10 | N#CCC1(n2cc(-c3ncnc4[nH]ccc34)cn2)CN([C@H]2CC[C@@H](Oc3cc(CN4CC[C@@H](O)C4)cc(C(F)(F)F)n3)CC2)C1 [Compound 21, {1-(cis-4-{[4-{[(3R)-3-hydroxypyrrolidin-1-yl]methyl}-6-(trifluoromethyl)pyridin-2-yl]oxy}cyclohexyl)-3-[4-(7H-pyrrolo[2,3-d]pyrimidin-4-yl)-1H-pyrazol-1-yl]azetidin-3-yl}acetonitrile] |
| >10 | N#CCC1(n2cc(-c3ncnc4[nH]ccc34)cn2)CN([C@H]2CC[C@@H](Oc3cc(CN4CC[C@H](O)C4)cc(C(F)(F)F)n3)CC2)C1 [Compound 22, {1-(cis-4-{[4-{[(3S)-3-hydroxypyrrolidin-1-yl]methyl}-6-(trifluoromethyl)pyridin-2-yl]oxy}cyclohexyl)-3-[4-(7H-pyrrolo[2,3-d]pyrimidin-4-yl)-1H-pyrazol-1-yl]azetidin-3-yl}acetonitrile] |
| >10 | C[C@@H](O)CNCc1cc(OC2CCN([C@H]3C[C@](CC#N)(n4cc(-c5ncnc6[nH]ccc56)cn4)C3)CC2)nc(C(F)(F)F)c1 [Compound 24, {trans-3-(4-{[4-({[(2R)-2-hydroxypropyl]amino}methyl)-6-(trifluoromethyl)pyridin-2-yl]oxy}piperidin-1-yl)-1-[4-(7H-pyrrolo[2,3-d]pyrimidin-4-yl)-1H-pyrazol-1-yl]cyclobutyl}acetonitrile] |
| >10 | C[C@H](O)CNCc1cc(OC2CCN([C@H]3C[C@](CC#N)(n4cc(-c5ncnc6[nH]ccc56)cn4)C3)CC2)nc(C(F)(F)F)c1 [Compound 25, {trans-3-(4-{[4-({[(2S)-2-hydroxypropyl]amino}methyl)-6-(trifluoromethyl)pyridin-2-yl]oxy}piperidin-1-yl)-1-[4-(7H-pyrrolo[2,3-d]pyrimidin-4-yl)-1H-pyrazol-1-yl]cyclobutyl}acetonitrile] |
| >10 | N#CC[C@]1(n2cc(-c3ncnc4[nH]ccc34)cn2)C[C@H](N2CCC(Oc3cc(CCO)cc(C(F)(F)F)n3)CC2)C1 [Compound 26, {trans-3-(4-{[4-(2-hydroxyethyl)-6-(trifluoromethyl)pyridin-2-yl]oxy}piperidin-1-yl)-1-[4-(7H-pyrrolo[2,3-d]pyrimidin-4-yl)-1H-pyrazol-1-yl]cyclobutyl}acetonitrile] |
